Results taken from ChEMBL document CHEMBL1201862, “PubChem BioAssay data set” (2004).
The source made the active and inactive calls.

Legend:
Protein RecA = molecular target: T1, Protein RecA (Mycobacterium tuberculosis, UniProt P9WHJ3); assay: Fluorescence Cell-Free Homogeneous Dose Retest to Identify Inhibitors of RecA-Intein Splicing Activity. [Related pubchem assays (depositor defined):AID2097, AID2223, AID489010, AID492950]; format: functional
T1 sequence (P9WHJ3 whole entry): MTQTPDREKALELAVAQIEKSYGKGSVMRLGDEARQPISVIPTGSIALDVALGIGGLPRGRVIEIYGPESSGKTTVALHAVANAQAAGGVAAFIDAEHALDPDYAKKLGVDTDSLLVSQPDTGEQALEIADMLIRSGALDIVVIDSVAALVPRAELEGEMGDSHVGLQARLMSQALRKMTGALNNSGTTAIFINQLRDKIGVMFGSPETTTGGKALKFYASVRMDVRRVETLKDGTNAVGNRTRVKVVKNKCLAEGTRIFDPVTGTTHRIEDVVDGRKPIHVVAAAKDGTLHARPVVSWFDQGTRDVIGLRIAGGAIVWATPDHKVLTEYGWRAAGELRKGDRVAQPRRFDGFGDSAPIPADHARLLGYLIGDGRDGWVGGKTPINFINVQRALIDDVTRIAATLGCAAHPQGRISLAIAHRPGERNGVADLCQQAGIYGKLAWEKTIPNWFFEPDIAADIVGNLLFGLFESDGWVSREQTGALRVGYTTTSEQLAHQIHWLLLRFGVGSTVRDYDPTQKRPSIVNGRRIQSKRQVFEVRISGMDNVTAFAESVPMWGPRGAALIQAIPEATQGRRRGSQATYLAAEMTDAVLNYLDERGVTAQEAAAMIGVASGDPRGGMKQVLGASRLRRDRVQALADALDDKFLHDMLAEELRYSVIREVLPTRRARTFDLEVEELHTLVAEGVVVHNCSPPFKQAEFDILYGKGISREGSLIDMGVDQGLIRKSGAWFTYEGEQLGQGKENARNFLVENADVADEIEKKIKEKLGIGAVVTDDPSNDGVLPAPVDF

[1] = molecular target: T2, Histone-lysine N-methyltransferase NSD2 (Homo sapiens, UniProt O96028); format: biochemical
T2 sequence (O96028 whole entry): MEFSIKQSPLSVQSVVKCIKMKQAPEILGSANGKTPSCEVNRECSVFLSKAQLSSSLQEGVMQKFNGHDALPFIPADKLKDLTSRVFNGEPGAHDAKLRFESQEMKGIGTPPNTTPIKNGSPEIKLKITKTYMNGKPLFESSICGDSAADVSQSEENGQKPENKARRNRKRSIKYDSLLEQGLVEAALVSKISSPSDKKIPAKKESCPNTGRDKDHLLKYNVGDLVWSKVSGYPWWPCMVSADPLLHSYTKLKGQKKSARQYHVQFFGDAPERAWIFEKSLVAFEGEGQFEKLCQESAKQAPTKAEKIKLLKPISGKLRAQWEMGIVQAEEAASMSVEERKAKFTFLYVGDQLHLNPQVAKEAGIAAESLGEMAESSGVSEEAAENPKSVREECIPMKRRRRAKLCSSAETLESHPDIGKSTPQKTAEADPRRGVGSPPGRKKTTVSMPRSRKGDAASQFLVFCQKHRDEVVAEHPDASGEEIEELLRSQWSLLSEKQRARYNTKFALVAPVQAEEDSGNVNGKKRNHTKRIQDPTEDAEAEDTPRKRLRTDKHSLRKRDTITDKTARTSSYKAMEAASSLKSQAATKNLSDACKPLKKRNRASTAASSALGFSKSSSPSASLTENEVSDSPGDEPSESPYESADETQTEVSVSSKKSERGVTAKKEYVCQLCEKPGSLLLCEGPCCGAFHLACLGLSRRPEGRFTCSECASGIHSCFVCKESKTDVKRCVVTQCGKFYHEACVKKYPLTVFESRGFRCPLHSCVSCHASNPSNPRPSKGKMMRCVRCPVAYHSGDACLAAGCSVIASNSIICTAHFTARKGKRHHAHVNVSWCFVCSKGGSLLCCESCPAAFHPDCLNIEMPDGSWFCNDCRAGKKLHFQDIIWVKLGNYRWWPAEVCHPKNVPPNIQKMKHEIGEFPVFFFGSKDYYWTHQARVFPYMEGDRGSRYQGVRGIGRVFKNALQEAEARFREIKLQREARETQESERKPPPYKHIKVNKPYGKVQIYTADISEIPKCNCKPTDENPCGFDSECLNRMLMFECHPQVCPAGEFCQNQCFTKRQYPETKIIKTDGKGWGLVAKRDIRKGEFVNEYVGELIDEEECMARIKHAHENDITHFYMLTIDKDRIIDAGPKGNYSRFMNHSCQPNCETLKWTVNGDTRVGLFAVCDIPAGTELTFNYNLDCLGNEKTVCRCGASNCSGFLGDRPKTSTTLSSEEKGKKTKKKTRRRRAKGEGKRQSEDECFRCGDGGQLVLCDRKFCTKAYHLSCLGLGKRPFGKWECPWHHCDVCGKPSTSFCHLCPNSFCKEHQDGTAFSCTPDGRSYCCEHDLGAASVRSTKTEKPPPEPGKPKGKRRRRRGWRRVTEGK

[2] = molecular target: Hepatocyte growth factor receptor (Homo sapiens, UniProt P08581); format: functional;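 further: kinase panel profiling across the kinome, with MET as the panel member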
[3] = molecular target: Calcium/calmodulin-dependent protein kinase type II subunit alpha (Homo sapiens, UniProt Q9UQM7); assay: Navigating the Kinome. Panel member name: CAMK2A; format: functional
[4] = molecular target: Dual specificity tyrosine-phosphorylation-regulated kinase 1B (Homo sapiens, UniProt Q9Y463); assay: Navigating the Kinome. Panel member name: DYRK1B; format: functional
[5] = molecular target: Mitogen-activated protein kinase 8 (Homo sapiens, UniProt P45983); format: functional;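 further: value comes from one member of a kinome-wide kinase profiling panel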
[6] = molecular target: Platelet-derived growth factor receptor alpha (Homo sapiens, UniProt P16234); assay: Navigating the Kinome. Panel member name: PDGFRA; format: functional
[7] = molecular target: Glycogen synthase kinase-3 beta (Homo sapiens, UniProt P49841); format: functional;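 further: value comes from a broad kinome profiling panel, with GSK3B as the panel member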
[8] = molecular target: Vascular endothelial growth factor receptor 1 (Homo sapiens, UniProt P17948); format: functional;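 further: measured within a kinome-wide profiling panel, FLT1 as the panel member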
[9] = molecular target: Mitogen-activated protein kinase kinase kinase kinase 4 (Homo sapiens, UniProt O95819); format: functional
[10] = molecular target: Macrophage colony-stimulating factor 1 receptor (Homo sapiens, UniProt P07333); format: functional;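 further: value comes from the Navigating the Kinome screening panel, CSF1R member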
[11] = molecular target: Ribosomal protein S6 kinase alpha-3 (Homo sapiens, UniProt P51812); format: functional;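 further: measured within a kinome-wide profiling panel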
Focal adhesion kinase 1 = Focal adhesion kinase 1 (Homo sapiens, UniProt Q05397); format: functional;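 further: measured as one member of a kinome panel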

Chain of Calcium/calmodulin-dependent protein kinase type II subunit alpha (Q9UQM7 whole entry): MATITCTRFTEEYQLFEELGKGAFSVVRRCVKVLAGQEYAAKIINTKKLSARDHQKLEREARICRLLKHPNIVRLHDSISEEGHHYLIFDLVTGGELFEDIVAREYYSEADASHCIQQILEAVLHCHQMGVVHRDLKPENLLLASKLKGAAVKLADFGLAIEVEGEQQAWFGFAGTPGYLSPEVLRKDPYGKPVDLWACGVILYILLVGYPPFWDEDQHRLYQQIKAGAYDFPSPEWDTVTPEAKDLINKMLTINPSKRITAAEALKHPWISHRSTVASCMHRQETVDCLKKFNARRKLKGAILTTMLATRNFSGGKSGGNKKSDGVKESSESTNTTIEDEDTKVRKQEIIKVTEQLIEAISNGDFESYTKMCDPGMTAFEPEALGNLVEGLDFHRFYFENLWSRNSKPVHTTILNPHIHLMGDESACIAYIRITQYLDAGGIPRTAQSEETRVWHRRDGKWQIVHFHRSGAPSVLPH
Chain of Macrophage colony-stimulating factor 1 receptor (P07333 whole entry): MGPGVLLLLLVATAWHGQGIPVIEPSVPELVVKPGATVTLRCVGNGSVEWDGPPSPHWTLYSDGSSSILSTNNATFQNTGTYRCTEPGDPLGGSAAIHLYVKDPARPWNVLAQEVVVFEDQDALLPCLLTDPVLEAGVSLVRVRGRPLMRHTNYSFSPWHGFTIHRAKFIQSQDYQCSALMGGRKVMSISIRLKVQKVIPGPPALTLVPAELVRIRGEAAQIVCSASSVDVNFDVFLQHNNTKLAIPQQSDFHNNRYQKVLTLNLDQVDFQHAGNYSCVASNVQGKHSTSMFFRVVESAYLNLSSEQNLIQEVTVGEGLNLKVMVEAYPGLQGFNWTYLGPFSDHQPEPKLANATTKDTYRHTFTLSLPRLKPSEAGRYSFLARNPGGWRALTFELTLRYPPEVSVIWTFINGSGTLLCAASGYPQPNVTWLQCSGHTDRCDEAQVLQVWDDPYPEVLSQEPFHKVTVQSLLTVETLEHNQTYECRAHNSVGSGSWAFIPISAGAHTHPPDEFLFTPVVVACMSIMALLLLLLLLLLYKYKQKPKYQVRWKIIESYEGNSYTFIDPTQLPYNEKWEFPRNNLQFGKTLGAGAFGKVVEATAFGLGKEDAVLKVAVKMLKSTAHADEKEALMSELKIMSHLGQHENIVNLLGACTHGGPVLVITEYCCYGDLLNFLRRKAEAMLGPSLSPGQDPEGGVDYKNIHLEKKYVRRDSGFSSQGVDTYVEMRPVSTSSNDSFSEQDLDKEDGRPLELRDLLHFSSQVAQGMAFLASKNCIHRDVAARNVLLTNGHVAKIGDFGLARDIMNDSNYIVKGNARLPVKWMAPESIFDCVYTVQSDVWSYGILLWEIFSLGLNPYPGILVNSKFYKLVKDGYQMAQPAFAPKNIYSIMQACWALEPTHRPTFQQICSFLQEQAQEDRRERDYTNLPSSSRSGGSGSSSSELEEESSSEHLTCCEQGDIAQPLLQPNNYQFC
Chain of Ribosomal protein S6 kinase alpha-3 (P51812 whole entry): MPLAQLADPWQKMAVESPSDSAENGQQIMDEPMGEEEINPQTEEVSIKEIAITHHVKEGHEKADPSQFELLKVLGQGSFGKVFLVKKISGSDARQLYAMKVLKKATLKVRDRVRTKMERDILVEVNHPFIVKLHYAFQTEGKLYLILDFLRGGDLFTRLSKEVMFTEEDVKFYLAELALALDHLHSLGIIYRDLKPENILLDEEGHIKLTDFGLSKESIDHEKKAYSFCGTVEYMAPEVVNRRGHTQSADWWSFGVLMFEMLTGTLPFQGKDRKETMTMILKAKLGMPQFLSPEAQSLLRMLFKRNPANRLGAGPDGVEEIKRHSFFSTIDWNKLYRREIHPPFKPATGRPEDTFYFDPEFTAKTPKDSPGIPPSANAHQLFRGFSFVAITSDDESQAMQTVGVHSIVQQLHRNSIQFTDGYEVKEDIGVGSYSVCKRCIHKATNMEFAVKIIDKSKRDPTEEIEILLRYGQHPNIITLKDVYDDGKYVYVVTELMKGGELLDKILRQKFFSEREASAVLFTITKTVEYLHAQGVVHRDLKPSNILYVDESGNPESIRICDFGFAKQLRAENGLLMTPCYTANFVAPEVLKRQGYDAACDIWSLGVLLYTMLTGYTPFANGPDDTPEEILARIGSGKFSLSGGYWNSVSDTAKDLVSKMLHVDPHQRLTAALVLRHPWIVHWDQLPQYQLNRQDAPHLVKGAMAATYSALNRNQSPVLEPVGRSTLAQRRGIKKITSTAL
Chain of Platelet-derived growth factor receptor alpha (P16234 whole entry): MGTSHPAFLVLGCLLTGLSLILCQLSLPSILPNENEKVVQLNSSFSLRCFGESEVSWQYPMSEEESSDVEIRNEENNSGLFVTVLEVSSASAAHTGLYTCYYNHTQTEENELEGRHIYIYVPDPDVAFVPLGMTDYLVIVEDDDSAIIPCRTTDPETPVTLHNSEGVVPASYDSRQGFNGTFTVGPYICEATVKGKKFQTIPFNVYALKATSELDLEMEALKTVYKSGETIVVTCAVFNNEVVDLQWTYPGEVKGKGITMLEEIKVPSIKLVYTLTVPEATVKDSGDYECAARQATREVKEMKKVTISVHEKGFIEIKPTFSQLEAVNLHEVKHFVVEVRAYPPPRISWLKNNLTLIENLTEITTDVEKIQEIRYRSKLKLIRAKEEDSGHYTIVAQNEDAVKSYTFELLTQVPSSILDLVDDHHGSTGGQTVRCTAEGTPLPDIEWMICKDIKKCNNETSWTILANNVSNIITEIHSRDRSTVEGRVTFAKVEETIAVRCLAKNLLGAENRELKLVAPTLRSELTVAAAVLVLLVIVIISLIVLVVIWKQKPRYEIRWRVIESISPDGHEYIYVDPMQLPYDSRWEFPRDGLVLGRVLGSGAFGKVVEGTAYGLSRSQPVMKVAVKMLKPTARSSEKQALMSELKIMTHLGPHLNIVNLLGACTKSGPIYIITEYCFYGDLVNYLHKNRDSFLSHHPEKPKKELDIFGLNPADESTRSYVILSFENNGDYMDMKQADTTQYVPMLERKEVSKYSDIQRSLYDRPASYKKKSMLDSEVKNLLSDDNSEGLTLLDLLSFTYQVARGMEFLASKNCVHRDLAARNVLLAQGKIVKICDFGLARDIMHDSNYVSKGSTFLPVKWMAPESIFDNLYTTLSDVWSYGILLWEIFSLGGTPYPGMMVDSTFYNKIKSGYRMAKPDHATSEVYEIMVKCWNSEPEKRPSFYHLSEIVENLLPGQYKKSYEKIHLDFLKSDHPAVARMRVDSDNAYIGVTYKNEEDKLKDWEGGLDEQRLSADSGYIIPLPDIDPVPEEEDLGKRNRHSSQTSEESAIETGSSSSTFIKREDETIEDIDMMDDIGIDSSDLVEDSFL
Chain of Mitogen-activated protein kinase kinase kinase kinase 4 (O95819 whole entry): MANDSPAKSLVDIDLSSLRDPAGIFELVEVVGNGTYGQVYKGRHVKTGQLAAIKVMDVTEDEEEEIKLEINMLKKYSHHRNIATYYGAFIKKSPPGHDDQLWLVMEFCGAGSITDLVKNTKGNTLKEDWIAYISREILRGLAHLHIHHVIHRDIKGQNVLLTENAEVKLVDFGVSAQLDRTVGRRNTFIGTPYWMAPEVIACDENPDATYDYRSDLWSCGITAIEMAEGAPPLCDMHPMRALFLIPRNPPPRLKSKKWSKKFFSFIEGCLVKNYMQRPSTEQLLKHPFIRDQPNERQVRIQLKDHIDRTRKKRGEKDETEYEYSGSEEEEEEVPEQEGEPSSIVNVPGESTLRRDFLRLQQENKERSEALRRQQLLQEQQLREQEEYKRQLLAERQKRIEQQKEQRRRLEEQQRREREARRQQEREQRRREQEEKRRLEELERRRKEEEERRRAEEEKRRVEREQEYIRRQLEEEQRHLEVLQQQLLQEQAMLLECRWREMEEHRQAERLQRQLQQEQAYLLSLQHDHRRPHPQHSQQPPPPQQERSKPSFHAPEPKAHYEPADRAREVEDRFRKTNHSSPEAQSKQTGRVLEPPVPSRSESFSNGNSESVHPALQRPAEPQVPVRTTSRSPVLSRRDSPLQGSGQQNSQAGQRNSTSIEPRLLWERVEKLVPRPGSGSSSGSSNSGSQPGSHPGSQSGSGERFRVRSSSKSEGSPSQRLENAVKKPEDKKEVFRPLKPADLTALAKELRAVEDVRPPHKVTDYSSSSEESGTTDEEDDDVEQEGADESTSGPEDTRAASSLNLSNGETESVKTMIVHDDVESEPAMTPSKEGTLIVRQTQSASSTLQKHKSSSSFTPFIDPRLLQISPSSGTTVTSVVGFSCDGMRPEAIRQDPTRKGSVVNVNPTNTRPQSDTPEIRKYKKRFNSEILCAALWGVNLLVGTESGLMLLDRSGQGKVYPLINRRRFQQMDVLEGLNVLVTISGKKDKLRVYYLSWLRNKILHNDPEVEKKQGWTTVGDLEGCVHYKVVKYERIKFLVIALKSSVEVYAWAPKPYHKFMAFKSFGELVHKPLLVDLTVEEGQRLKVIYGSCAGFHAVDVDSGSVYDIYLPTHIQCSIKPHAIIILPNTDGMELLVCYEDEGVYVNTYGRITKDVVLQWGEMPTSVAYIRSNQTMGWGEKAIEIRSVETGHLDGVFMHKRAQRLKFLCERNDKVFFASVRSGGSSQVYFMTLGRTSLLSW
Chain of Mitogen-activated protein kinase 8 (P45983 whole entry): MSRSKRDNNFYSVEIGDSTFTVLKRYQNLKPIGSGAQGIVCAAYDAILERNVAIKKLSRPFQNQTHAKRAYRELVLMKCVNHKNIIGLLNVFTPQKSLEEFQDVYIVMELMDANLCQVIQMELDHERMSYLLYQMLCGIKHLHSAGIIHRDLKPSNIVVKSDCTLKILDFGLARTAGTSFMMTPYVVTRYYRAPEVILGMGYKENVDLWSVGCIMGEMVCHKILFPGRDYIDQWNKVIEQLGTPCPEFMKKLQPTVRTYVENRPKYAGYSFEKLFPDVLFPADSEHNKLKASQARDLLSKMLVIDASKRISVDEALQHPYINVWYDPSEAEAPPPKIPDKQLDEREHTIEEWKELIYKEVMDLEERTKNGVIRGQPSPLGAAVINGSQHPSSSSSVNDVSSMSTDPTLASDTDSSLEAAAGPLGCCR

Row | SMILES | EC50 (Protein RecA) | AC50 [1] | Ki [2] | Ki [3] | Ki [4] | Ki [5] | Ki [6] | Ki [7] | Ki [8] | Ki [9] | Ki [10] | Ki [11] | Ki (Focal adhesion kinase 1)
1 | O=C(NC1=C(NC2CCS(=O)(=O)C2)C(=O)c2ccccc2C1=O)c1ccccc1 (stereo not drawn) | 101 nM (active) | > 20000 nM (inactive) | – | – | – | – | – | – | – | – | – | – | –
2 | O=C1NC(=O)C(c2c[nH]c3ccccc23)=C1c1nc(N2CCNCC2)nc2ccccc12 | – | – | 398 nM (active) | 501 nM (active) | > 2000 nM (inactive) | > 5010 nM (inactive) | > 2510 nM (inactive) | > 3980 nM (inactive) | > 2510 nM (inactive) | 200 nM (active) | > 2510 nM (inactive) | 50.1 nM (active) | 2000 nM (active)
